In patent US8748434B2 (Hoffman-La Roche Inc., priority 2012, dated 2014):

What follows are compounds tested against T1, human GPBAR1 receptor (Homo sapiens, UniProt Q8TDU6) (assay: functional cAMP assay in CHO-dhfr(minus) cells expressing human GPBAR1 receptors). Conditions: CHO-dhfr(minus) cells expressing human GPBAR1, compounds incubated 30 min at 30° C.
T1 construct: expressed in transfected cells
T1 sequence (Q8TDU6 1-330): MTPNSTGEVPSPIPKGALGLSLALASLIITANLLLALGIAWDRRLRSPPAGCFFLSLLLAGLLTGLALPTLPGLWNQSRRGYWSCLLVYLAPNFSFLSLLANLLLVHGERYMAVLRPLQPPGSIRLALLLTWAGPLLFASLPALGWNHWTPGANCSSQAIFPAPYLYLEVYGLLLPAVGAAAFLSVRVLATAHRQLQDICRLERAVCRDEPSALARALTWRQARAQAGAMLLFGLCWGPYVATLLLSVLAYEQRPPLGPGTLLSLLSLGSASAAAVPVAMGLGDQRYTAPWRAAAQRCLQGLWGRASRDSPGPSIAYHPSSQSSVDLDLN
Type: cell-based
From the text: The cDNA of the human GPBAR1 receptor (Genbank: NM 170699 with the exception of a silent C:G mutation at position 339 from the start codon) was amplified by polymerase chain reaction (PCR) from human cDNA and inserted into pCineo (Promega) by standard methods (Current Protocols in Molecular Biology, Wiley Press, ed. Ausubel et al.). The final clone was verified by DNA sequence analysis. The plasmid was transfected into CHO cells deficient in dihydrofolate reductase activity (CHO-dhfr−) using Lipofectamine plus (Invitrogen). Clones were isolated in limited dilution conditions and identified by activities in the cAMP assay using lithocholic acid as agonist. A clonal cell line displaying the greatest activity in cAMP increases was selected and identified as giving consistently good responses for up to at least 20 passages.
CHO-dhfr(minus) cells expressing human GPBAR1 receptors are seeded 17-24 hours prior to the experiment 50.000 cells per well in a black 96 well plate with flat clear bottom (Corning Costar #3904) in DMEM (Invitrogen No. 31331), 1×HT supplement, with 10% fetal calf serum and incubated at 5% CO2 and 37° C. in a humidified incubator. The growth medium was exchanged with Krebs Ringer Bicarbonate buffer with 1 mM IBMX and incubated at 30° C. for 30 min. Compounds were added to a final assay volume of 100 μl and incubated for 30 min at 30° C. The assay was stopped by the addition of 50 μl lysis reagent (Tris, NaCl, 1.5% Triton X100, 2.5% NP40, 10% NaN3) and 50 μl detection solutions (20 μM mAb Alexa700-cAMP 1:1, and 48 μM Ruthenium-2-AHA-cAMP) and shaked for 2 h at room temperature. The time-resolved energy transfer is measured by a TRF reader (Evotec Technologies GmbH, Hamburg Germany), equipped with a ND:YAG laser as excitation source. The plate is measured twice with the excitation at 355 nm and at the emission with a delay of 100 ns and a gate of 100 ns, total exposure time 10 s at 730 (bandwidth 30 nm) or 645 nm (bandwidth 75 nm), respectively. The measured signal at 730 nm has to be corrected for the ruthenium background, the direct excitation of Alexa and the buffer control. The FRET signal is calculated as follows: FRET=T730−Alexa730−P(T645−B645) with P=R^u730−B730/Ru645−B645, where T730 is the test well measured at […], T645 is the test well measured at 645 nm, B730 and B645 are the buffer controls at 730 nm and 645 nm, respectively. cAMP content is determined from the function of a standard curve spanning from 10 μM to 0.13 nM cAMP.
EC50 values were determined using Activity Base analysis (ID Business Solution, Limited). The EC50 values for a wide range of bile acids generated from this assay were in agreement with the values published in the scientific literature. Specificity for GPBAR1 was tested in non-transfected CHO cells in the same assay as above.

Row | Structure (SMILES) | EC50
1 | COc1cc(F)ccc1-c1cc(C)nnc1N(C)C(=O)c1cc(C(F)(F)F)cc(S(C)(=O)=O)c1 [Example 3, N-[4-(4-Fluoro-2-methoxy-phenyl)-6-methyl-pyridazin-3-yl]-3-methanesulfonyl-N-methyl-5-trifluoromethyl-benzamide] | 178 nM
2 | CN(C(=O)c1cc(C(F)(F)F)cc(S(C)(=O)=O)c1)c1nnc(Cl)cc1-c1ccccc1 [Example 5, N-(6-Chloro-4-phenyl-pyridazin-3-yl)-3-methanesulfonyl-N-methyl-5-trifluoromethyl-benzamide] | 2690 nM
3 | Cc1cc(-c2cccnc2OCC(F)(F)F)c(N(C)C(=O)c2cc(C(F)(F)F)cc(S(C)(=O)=O)c2)nn1 [Example 13, 3-Methanesulfonyl-N-methyl-N-{6-methyl-4-[2-(2,2,2-trifluoro-ethoxy)-pyridin-3-yl]-pyridazin-3-yl}-5-trifluoromethyl-benzamide] | 3910 nM
4 | COc1ncccc1-c1cc(Cl)nnc1N(C)C(=O)c1cc(C(F)(F)F)cc(S(C)(=O)=O)c1 [Example 8, N-[6-Chloro-4-(2-methoxy-pyridin-3-yl)-pyridazin-3-yl]-3-methanesulfonyl-N-methyl-5-trifluoromethyl-benzamide] | 1520 nM
5 | Cc1ccccc1-c1ncncc1N(C)C(=O)c1cc(C(F)(F)F)cc(C(F)(F)F)c1 [Example 19, N-Methyl-N-(4-o-tolyl-pyrimidin-5-yl)-3,5-bis-trifluoromethyl-benzamide] | 1480 nM
6 | COc1cc(F)ccc1-c1cc(Cl)nnc1N(C)C(=O)c1cc(C(F)(F)F)cc(S(C)(=O)=O)c1 [Example 1, N-[6-Chloro-4-(4-fluoro-2-methoxy-phenyl)-pyridazin-3-yl]-3-methanesulfonyl-N-methyl-5-trifluoromethyl-benzamide] | 165 nM
7 | Cc1ccccc1-c1cnncc1N(C)C(=O)c1cc(Cl)cc(S(C)(=O)=O)c1 [Example 16, 3-Chloro-5-methanesulfonyl-N-methyl-N-(5-o-tolyl-pyridazin-4-yl)-benzamide] | 663 nM
8 | Cc1ccccc1-c1cnncc1N(C)C(=O)c1cc(C(F)(F)F)cc(S(=O)(=O)CCCC(=O)OC(C)(C)C)c1 [Example 17, 4-{3-[Methyl-(5-o-tolyl-pyridazin-4-yl)-carbamoyl]-5-trifluoromethyl-benzenesulfonyl}-butyric acid tert-butyl ester] | 775 nM
9 | COc1cc(F)ccc1-c1ccnnc1N(C)C(=O)c1cc(C(F)(F)F)cc(S(C)(=O)=O)c1 [Example 2, N-[4-(4-Fluoro-2-methoxy-phenyl)-pyridazin-3-yl]-3-methanesulfonyl-N-methyl-5-trifluoromethyl-benzamide] | 75 nM
10 | Cc1ccccc1-c1cnncc1N(C)C(=O)c1cc(C(F)(F)F)cc(S(=O)(=O)CCCC(=O)O)c1 [Example 18, 4-{3-[Methyl-(5-o-tolyl-pyridazin-4-yl)-carbamoyl]-5-trifluoromethyl-benzenesulfonyl}-butyric acid] | > 10000 nM
11 | Cc1ccccc1-c1cnncc1N(C)C(=O)c1cc(C(F)(F)F)cc(S(C)(=O)=O)c1 [Example 15, 3-Methanesulfonyl-N-methyl-N-(5-o-tolyl-pyridazin-4-yl)-5-trifluoromethyl-benzamide] | 429 nM
12 | Cc1ccccc1-c1cc(Cl)nnc1N(C)C(=O)c1cc(C(F)(F)F)cc(S(=O)(=O)CCCC(=O)O)c1 [Example 10, 4-{3-[(6-Chloro-4-o-tolyl-pyridazin-3-yl)-methyl-carbamoyl]-5-trifluoromethyl-benzenesulfonyl}-butyric acid] | 8180 nM

The remaining compounds from weak to strong by EC50, led by results:

Row | EC50 | Structure (SMILES)
13 | 2390 nM | CN(C(=O)c1cc(C(F)(F)F)cc(S(C)(=O)=O)c1)c1nnc(Cl)cc1-c1cccnc1OCC(F)(F)F [Example 11, N-{6-Chloro-4-[2-(2,2,2-trifluoro-ethoxy)-pyridin-3-yl]-pyridazin-3-yl}-3-methanesulfonyl-N-methyl-5-trifluoromethyl-benzamide]
14 | 2180 nM | Cc1ccccc1-c1cc(Cl)nnc1N(C)C(=O)c1cc(C(F)(F)F)cc(S(C)(=O)=O)c1 [Example 4, N-(6-Chloro-4-o-tolyl-pyridazin-3-yl)-3-methanesulfonyl-N-methyl-5-trifluoromethyl-benzamide]
15 | 427 nM | CN(C(=O)c1cc(C(F)(F)F)cc(S(=O)(=O)N2CCOCC2)c1)c1nnc(Cl)cc1-c1ccccc1 [Example 6]
16 | 299 nM | CN(C(=O)c1cc(C(F)(F)F)cc(C(F)(F)F)c1)c1nnc(Cl)cc1-c1ccccc1 [Example 7, N-(6-Chloro-4-phenyl-pyridazin-3-yl)-N-methyl-3,5-bis-trifluoromethyl-benzamide]
17 | 230 nM | COc1cc(F)ccc1-c1cnncc1N(C)C(=O)c1cc(C(F)(F)F)cc(S(C)(=O)=O)c1 [Example 14, N-[5-(4-Fluoro-2-methoxy-phenyl)-pyridazin-4-yl]-3-methanesulfonyl-N-methyl-5-trifluoromethyl-benzamide]
18 | 160 nM | CN(C(=O)c1cc(C(F)(F)F)cc(S(C)(=O)=O)c1)c1nnccc1-c1cccnc1OCC(F)(F)F [Example 12, 3-Methanesulfonyl-N-methyl-N-{4-[2-(2,2,2-trifluoro-ethoxy)-pyridin-3-yl]-pyridazin-3-yl}-5-trifluoromethyl-benzamide]
